Measured values from US12122780B2, “Pyrimidinyl group-containing tricyclic compound serving as c-Met inhibitor” (JIANGSU AOSAIKANG PHARMACEUTICAL CO., LTD., priority 2019, dated 2024).
Where a name gives a salt, the structure may show the parent alone.

What was measured:
Hs746T cells = assay: Hs746T cell proliferation experiment (CellTiter-Glo); format: cell-based; conditions: Homo sapiens, 96 h, 4 days
Protocol: DMEM medium was purchased from Gibco, and fetal bovine serum was purchased from Hyclone. Hs746T cell line was purchased from ATCC. Envision multi-label analyzer (PerkinElmer).
Hs746T cells were seeded in a 384-well plate, 50 μL of cell suspension per well, which contained 1500 Hs746T cells. The cell plate was placed in a carbon dioxide incubator for overnight culture.
The compounds to be tested were 3-fold diluted into 9 concentrations with Tecan, double-duplicate well experiment was set, and the final compound concentrations added to the 384-well cell plate were 1000 nM to 0.15 nM. The cell plate was cultured in a carbon dioxide incubator for 4 days.
After 4 days, 25 μL of Promega CellTiter-Glo reagent was added to each well of this cell plate, and incubated at room temperature for 10 minutes to stabilize the luminescence signal. Readings were taken using a PerkinElmer Envision multi-label analyzer.
The action curves of the compounds were automatically fitted using Xlfit software and the values of IC50 were calculated, High control was the values of DMSO-treated wells and Low control was the values of cell-free medium wells.

c-Met enzyme = c-Met enzyme (Homo sapiens (Human), UniProt P08581); assay: c-Met enzyme activity inhibition (Promega c-Met Kinase Enzyme System, ADP-Glo); format: biochemical; conditions: 10 μM ATP, 60 min, 30° C.
Chain of c-Met enzyme (P08581 956-1390): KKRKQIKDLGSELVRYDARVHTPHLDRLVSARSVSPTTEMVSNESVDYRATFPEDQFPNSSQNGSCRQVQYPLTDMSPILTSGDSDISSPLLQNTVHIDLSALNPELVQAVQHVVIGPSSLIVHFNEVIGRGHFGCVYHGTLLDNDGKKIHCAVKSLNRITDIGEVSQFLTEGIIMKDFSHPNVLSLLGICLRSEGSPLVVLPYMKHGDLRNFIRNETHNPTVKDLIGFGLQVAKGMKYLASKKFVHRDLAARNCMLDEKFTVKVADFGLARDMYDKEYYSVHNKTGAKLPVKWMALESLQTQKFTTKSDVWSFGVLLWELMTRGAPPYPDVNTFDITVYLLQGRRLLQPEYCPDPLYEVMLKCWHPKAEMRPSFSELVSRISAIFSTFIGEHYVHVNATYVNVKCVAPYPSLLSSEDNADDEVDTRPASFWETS
Protocol: To detect the inhibitory effect of the compounds on c-Met enzyme activity.
The c-Met Kinase Enzyme System was purchased from Promega. Envision multi-label analyzer (PerkinElmer).
The kinase buffer in the kit was used to dilute the enzyme, substrate, ATP and inhibitor.
The compound to be tested was diluted 5-fold to the eighth concentration with a discharge gun, i.e., from 50 μM to […], with a final DMSO concentration of 5%, and double duplicate wells experiment was set. 1 μL of each concentration gradient of the inhibitor, 2 μL of c-Met enzyme (4 ng), 2 μL of a mixture of the substrate and ATP (10 μM ATP, 0.2 μg/μL poly E4Y1) were added to the microplate, and the final concentration gradient of the compound of 10 μM was diluted to 0.13 nM. The reaction system was placed at 30° C. and the reaction was carried out for 60 minutes. When the reaction was completed, 5 μL of ADP-Glo reagent was added to each well and the reaction was carried out at 30° C. for another 40 minutes, when the reaction was completed, 10 μL of kinase detection reagent was added to each well, then the reaction was carried out at 30° C. for still another 30 minutes, chemiluminescence was read by the PerkinElmer Envision multi-label analyzer with an integration time of 0.5 seconds.
Using the equation (Sample-Min)/(Max-Min)*100% to convert the original data to the inhibition rate, the IC50 value can be obtained by curve fitting with four parameters (obtained by log(inhibitor) vs. response in GraphPad Prism—Variable slope mode).

[1] = Pharmacokinetics of single intravenous and oral administration in mice; format: in vivo; conditions: for Exposure AUC / Vd / clearance / half-life: intravenous injection, 1 mg/kg; for Vd / clearance / half-life / bioavailability: mouse, plasma; for Vd: read-out: Apparent volume of distribution; for clearance: read-out: Clearance rate; for half-life: read-out: Half-life (T1/2) (converted); for bioavailability / Exposure AUC0-last / Maximum blood concentration / Peak time: oral administration, 10 mg/kg
Protocol: The objective of this experiment was to study the pharmacokinetics (PK) of the test compound in different species after a single intravenous and a single oral administration.
After intravenous injection or oral administration, animal blood samples were collected and the actual blood collection time was recorded. Immediately after collection, blood samples were transferred to labeled centrifuge tubes containing K2-EDTA and subsequently centrifuged and processed to obtain plasma. Plasma was transferred to pre-cooled centrifuge tubes, snap-frozen in dry ice and stored in an ultra-low temperature refrigerator at −70±10° C. until LC-MS was performed.
Plasma drug concentration data of the compounds were processed using pharmacokinetic software with a non-compartmental model. The peak concentration (Cmax) and time to peak (Tmax), as well as the quantifiable end time, were obtained directly from the blood concentration-time diagram. The log-linear trapezoidal method was used to calculate the following pharmacokinetic parameters: half-life (T1/2), apparent volume of distribution (Vdss) and clearance rate (Cl), and the area under the time-plasma concentration curve from 0 points to the end time (AUC0-last), the initial concentration (C0).

[2] = test system: human lung cancer EBC-1 xenograft tumor; assay: In vivo drug efficacy, human lung cancer EBC-1 xenograft tumor in nude mice; design: species or system BALB/c nude mice; conditions: for Tumor volume: n = 6; for TGI (tumor growth inhibition rate) / TRTV/CRTV (relative tumor proliferation rate T/C): 25th day
Protocol: BALB/c nude mice, female, 6-8 weeks old, weighing about 18-20 grams, animals were raised in SPF-class animal rooms in IVC (independent air supply system, constant temperature and humidity) cages (3 per cage). All cages, bedding and water were disinfected before use. All animals had free access to standard certified commercial laboratory diets. A total of 36 mice purchased from Shanghai Lingchang Biotechnology Co., Ltd. were used for research. Each animal was inoculated with 0.1 mL (5×10^6 cells) of EBC-1 cells on the right back, when the average tumor volume reached 243 mm^3, the animals were randomly grouped and the administration was started. The test compound was orally administered daily, the dose of hydrochloride of compound 24 was 10 mg/kg, the two doses of hydrochloride of compound 25 were 10 mg/kg and 20 mg/kg, respectively, and the dose of hydrochloride of compound 29 was 10 mg/kg. The tumor diameter was measured with vernier calipers twice a week. The calculation formula of tumor volume was: V=0.5a×b^2, a and b represented the long diameter and short diameter of the tumor, respectively. The anti-tumor efficacy of the compound was evaluated by TGI (%) or the relative tumor proliferation rate T/C (%). Relative tumor proliferation rate T/C (%)=TRTV/CRTV×100% (TRTV: average RTV in the treatment group; CRTV: average RTV in the negative control group). The relative tumor volume (RTV) was calculated according to the results of tumor measurement, the calculation formula was RTV=Vt/V0, wherein V0 was the tumor volume measured at the time of the grouping administration (i.e. D0), Vt was the tumor volume at a certain measurement, and TRTV and CRTV were taken on the same day. TGI (%) reflected the tumor growth inhibition rate. TGI (%)=[(1−(average tumor volume of a certain treatment group after administration-average tumor volume of the treatment group at the beginning of administration))/(average tumor volume of the solvent control group after the administration-average tumor volume of the solvent control group at the beginning of the administration)]×100%. Statistical analysis was performed based on RTV data at the end of the experiment, and SPSS software was used for analysis.

CC(C)(O)CN1CCC(COc2cnc(-c3cccc(Cn4c(=O)ccn5c6cc(C#N)ccc6nc45)c3)nc2)CC1 [Hydrochloride of compound 39]
IC50 (Hs746T cells): 1.5 nM
IC50 (c-Met enzyme): 5.51 nM
Exposure AUC [1]: 1.8 µM·h
Vd [1]: 7.27 L/kg
clearance [1]: 15.8 mL/min/kg
half-life [1]: 6.73 h
bioavailability [1]: 82.3%
Exposure AUC0-last [1]: 14.9 µM·h
Maximum blood concentration [1]: 1070 nmol
Peak time [1]: 4 h

CC(C)N1CCC(COc2cnc(-c3cccc(Cn4c(=O)ccn5c6cc(C#N)ccc6nc45)c3)nc2)CC1 [Hydrochloride of compound 25]
IC50 (Hs746T cells): 2.2 nM
IC50 (c-Met enzyme): 2.75 nM
Tumor volume ([2]; 10 mg/kg oral daily (stopped after 15 days), day 18, mean ± standard error): 34 ± 4 mm^3
Tumor volume ([2]; 10 mg/kg oral daily (stopped after 15 days), day 21, mean ± standard error): 44 ± 6 mm^3
Tumor volume ([2]; 10 mg/kg oral daily (stopped after 15 days), day 25, mean ± standard error): 83 ± 11 mm^3
Tumor volume ([2]; 10 mg/kg oral daily (stopped after 15 days), day 25, mean ± standard error, listed as hydrochloride of compound 25): 83 mm^3
Tumor volume ([2]; 10 mg/kg oral daily (stopped after 15 days), day 27, mean ± standard error): 120 ± 25 mm^3
TGI (tumor growth inhibition rate) ([2]; 10 mg/kg oral daily): 108.9%
TRTV/CRTV (relative tumor proliferation rate T/C) ([2]; 10 mg/kg oral daily): 4.3%
Tumor volume ([2]; 10 mg/kg oral daily, day 0, mean ± standard error): 243 ± 21 mm^3
Tumor volume ([2]; 10 mg/kg oral daily, day 4, mean ± standard error): 247 ± 20 mm^3
Tumor volume ([2]; 10 mg/kg oral daily, day 7, mean ± standard error): 162 ± 13 mm^3
Tumor volume ([2]; 10 mg/kg oral daily, day 11, mean ± standard error): 67 ± 9 mm^3
Tumor volume ([2]; 10 mg/kg oral daily, day 14, mean ± standard error): 46 ± 5 mm^3
Tumor volume ([2]; 20 mg/kg oral daily (stopped after 15 days), day 18, mean ± standard error): 4 ± 0 mm^3
Tumor volume ([2]; 20 mg/kg oral daily (stopped after 15 days), day 21, mean ± standard error): 4 ± 0 mm^3
Tumor volume ([2]; 20 mg/kg oral daily (stopped after 15 days), day 25, mean ± standard error): 4 ± 0 mm^3
Tumor volume ([2]; 20 mg/kg oral daily (stopped after 15 days), day 25, mean ± standard error, listed as hydrochloride of compound 25): 4 mm^3
Tumor volume ([2]; 20 mg/kg oral daily (stopped after 15 days), day 27, mean ± standard error): 2 ± 1 mm^3
TGI (tumor growth inhibition rate) ([2]; 20 mg/kg oral daily): 113.4%
TRTV/CRTV (relative tumor proliferation rate T/C) ([2]; 20 mg/kg oral daily): 0.2%
Tumor volume ([2]; 20 mg/kg oral daily, day 0, mean ± standard error): 244 ± 22 mm^3
Tumor volume ([2]; 20 mg/kg oral daily, day 4, mean ± standard error): 174 ± 12 mm^3
Tumor volume ([2]; 20 mg/kg oral daily, day 7, mean ± standard error): 100 ± 8 mm^3
Tumor volume ([2]; 20 mg/kg oral daily, day 11, mean ± standard error): 32 ± 3 mm^3
Tumor volume ([2]; 20 mg/kg oral daily, day 14, mean ± standard error): 12 ± 3 mm^3
Exposure AUC [1]: 2.08 µM·h
Vd [1]: 5.41 L/kg
clearance [1]: 14.7 mL/min/kg
half-life [1]: 4.51 h
bioavailability [1]: 27%
Exposure AUC0-last [1]: 5.56 µM·h
Maximum blood concentration [1]: 541 nmol
Peak time [1]: 2.33 h
